Measurements published in publication PMC8228075, “In Vitro and In Silico Characterization of G-Protein Coupled Receptor (GPCR) Targets of Phlorofucofuroeckol-A and Dieckol” (Marine Drugs, 2021).

Tests used:
Assay type in all cases: cell-based
[1] = molecular target: T1, Alpha-2A adrenergic receptor (hα2AAR) (Homo sapiens, UniProt P08913); assay: hα2AAR functional agonist assay (Ca2+ mobilization, rat basophil leukemia cells); settings: 100 µM; % of control response to 0.1 µM epinephrine bitartrate
T1 construct: host or cells: rat basophil leukemia cells
T1 sequence (P08913 1-465): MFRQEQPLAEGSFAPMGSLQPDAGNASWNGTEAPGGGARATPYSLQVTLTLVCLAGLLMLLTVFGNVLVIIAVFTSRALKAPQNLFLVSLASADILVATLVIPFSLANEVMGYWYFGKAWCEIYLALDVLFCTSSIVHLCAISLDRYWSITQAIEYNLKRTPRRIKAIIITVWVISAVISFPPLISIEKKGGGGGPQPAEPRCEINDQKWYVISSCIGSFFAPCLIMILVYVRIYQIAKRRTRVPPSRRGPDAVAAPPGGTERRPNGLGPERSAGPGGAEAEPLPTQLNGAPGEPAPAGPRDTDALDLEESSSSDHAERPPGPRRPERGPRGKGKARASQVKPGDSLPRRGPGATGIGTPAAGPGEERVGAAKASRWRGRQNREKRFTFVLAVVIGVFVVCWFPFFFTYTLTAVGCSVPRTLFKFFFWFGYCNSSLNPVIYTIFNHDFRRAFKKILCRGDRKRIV
Source text: (§1) The in-house assay protocol and experimental conditions are reported in our previous reports. The functional effect of dieckol and PFF-A was characterized based on their modulation effect on cytosolic Ca^2+ ion mobilization using a fluorimetric detection method or by measuring their effect on cAMP modulation using homogeneous time-resolved fluorescence (HTRF) detection.
The rat basophil leukemia cells were distributed in microplates at a density of 1.1 × 10^4 cells/well after suspending in a HBSS buffer (Invitrogen) containing 20 mM HEPES. Then, the fluorescent probe (Fluo8, AAT Bioquest) mixed with probenecid in HBSS buffer (Invitrogen) complemented with 20 mM Hepes (Millipore) (pH 7.4) was added into each well incubated for 60 min at 30 °C. Thereafter, the assay plates were positioned in a microplate reader (FlipR Tetra, Molecular Device) and we added test compounds, reference agonist/antagonist or HBSS buffer (basal control). Change in fluorescence intensity which varies proportionally to the free cytosolic Ca^2+ ion concentration was measured.

[2] = molecular target: T2, Alpha-2C adrenergic receptor (hα2CAR) (Homo sapiens, UniProt P18825); assay: hα2CAR functional antagonist assay (cAMP, HTRF, CHO cells); settings: read-out: Antagonist Effect
T2 construct: host or cells: CHO cells
T2 sequence (P18825 1-462): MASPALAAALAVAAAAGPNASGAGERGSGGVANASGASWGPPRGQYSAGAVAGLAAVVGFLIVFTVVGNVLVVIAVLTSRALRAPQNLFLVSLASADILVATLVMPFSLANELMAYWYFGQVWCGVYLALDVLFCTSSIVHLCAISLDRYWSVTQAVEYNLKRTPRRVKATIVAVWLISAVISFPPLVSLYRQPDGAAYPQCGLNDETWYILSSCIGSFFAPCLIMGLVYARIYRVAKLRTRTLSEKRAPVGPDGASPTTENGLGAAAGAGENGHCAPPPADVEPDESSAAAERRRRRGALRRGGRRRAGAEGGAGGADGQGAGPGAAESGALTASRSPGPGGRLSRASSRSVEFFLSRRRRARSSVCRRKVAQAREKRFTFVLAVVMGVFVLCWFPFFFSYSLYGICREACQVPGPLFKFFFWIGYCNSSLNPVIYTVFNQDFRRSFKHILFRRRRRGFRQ
Description: as §1
(§2) Functional activity of phlorotannins over hA2AR, hα2CAR, hCB1R, GLP-1R, and h5-HT1BR was determined by measuring their effects on cAMP production by the HTRF detection method using transected cells expressing human cloned receptors.
After 10 min at 37 °C, the cells were lysed and the fluorescence acceptor (D2-labeled cAMP) and fluorescence donor (anti-cAMP antibody labeled with europium cryptate) were added.

[3] = molecular target: T3, Cannabinoid receptor 1 (CB1R) (Homo sapiens, UniProt P21554); assay: hCB1R functional antagonist assay (cAMP, HTRF, CHO cells); settings: CHO, read-out: Antagonist Effect
T3 construct: host or cells: CHO cells
Description: as §1, §2
The transfected CHO cells were suspended in HBSS buffer (Invitrogen) complemented with 20 mM HEPES (pH 7.4). […] After 30 min of incubation at 37 °C, the cells were lysed and the fluorescence acceptor (D2-labeled cAMP) and fluorescence donor (anti-cAMP antibody labeled with europium cryptate) were added.

h5-HT1AR = molecular target: T4, h5-HT1AR (Homo sapiens, UniProt P08908); assay: h5-HT1AR functional antagonist assay (Ca2+ mobilization, Ba/F3 cells); settings: for Antagonist Effect: 50 µM, % inhibition of control response to 30 nM serotonin; for IC50: antagonist effect, mean ± SD, n = 3
T4 construct: host or cells: Ba/F3-5HT1AR cells
T4 sequence (P08908 1-422): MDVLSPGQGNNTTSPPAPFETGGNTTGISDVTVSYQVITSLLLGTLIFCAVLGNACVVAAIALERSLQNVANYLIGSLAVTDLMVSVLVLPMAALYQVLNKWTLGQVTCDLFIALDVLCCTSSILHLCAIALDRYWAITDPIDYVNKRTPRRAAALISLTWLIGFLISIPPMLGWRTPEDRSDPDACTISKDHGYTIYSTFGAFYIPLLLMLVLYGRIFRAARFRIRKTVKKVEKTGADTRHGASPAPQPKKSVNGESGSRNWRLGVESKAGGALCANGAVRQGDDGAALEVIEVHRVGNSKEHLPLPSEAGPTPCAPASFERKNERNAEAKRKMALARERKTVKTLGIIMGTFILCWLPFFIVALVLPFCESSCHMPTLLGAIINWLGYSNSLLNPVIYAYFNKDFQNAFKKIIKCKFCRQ
Description: as §1
In brief, Ba/F3-5HT1AR cells were first suspended in HBSS buffer (Invitrogen, Carlsbad, CA, USA) complemented with 20 mM HEPES buffer (pH 7.4). Then, the cells were distributed into microplates at a density of 1 × 10^6 cells/well. Subsequently, fluorescent probe (Fluo8, AAT Bioquest) mixed with probenecid in HBSS buffer (Invitrogen, Carlsbad, CA, USA) supplemented with 20 mM HEPES (Invitrogen) (pH 7.4) was added to each well, and the plates were incubated for 60 min at 37 °C. […] Fluorescence intensity was measured which varied in proportion to the free cytosolic Ca^2+ ion concentration.

h5-HT1BR = h5-HT1BR (Homo sapiens, UniProt P28222); assay: h5-HT1BR functional antagonist assay (cAMP, HTRF, Hela cells); settings: HeLa, read-out: Antagonist Effect
Description: as §1, §2
Concisely, a plasmid containing the GPCR gene of interest (5-HT1B) was transfected into Hela cells. The resulting stable transfectants were suspended in HBSS buffer (Invitrogen, Carlsbad, CA, USA) containing 20 mM HEPES (pH 7.4), […], 1 mg/mL glucose, and 500 μM IBMX and distributed in microplates at a density of 2 × 10^4 cells/well. […] Then, the cells were lysed and a fluorescence acceptor (D2-labeled cAMP) and fluorescence donor (anti-cAMP antibody with europium cryptate) were added following 60 min incubation at RT.

[4] = BaF3, read-out: Antagonist Effect

Chain of h5-HT1BR (P28222 whole entry): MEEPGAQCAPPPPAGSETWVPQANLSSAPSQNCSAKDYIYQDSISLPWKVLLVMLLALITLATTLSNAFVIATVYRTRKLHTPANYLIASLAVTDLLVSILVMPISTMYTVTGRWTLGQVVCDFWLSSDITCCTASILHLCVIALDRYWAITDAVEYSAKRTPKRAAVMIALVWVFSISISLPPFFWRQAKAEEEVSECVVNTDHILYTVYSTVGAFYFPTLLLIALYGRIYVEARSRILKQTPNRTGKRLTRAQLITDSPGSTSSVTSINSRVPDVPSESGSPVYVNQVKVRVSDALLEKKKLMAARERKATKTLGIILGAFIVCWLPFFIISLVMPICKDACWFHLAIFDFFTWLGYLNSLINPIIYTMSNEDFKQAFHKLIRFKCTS
T3 sequence (P21554 whole entry): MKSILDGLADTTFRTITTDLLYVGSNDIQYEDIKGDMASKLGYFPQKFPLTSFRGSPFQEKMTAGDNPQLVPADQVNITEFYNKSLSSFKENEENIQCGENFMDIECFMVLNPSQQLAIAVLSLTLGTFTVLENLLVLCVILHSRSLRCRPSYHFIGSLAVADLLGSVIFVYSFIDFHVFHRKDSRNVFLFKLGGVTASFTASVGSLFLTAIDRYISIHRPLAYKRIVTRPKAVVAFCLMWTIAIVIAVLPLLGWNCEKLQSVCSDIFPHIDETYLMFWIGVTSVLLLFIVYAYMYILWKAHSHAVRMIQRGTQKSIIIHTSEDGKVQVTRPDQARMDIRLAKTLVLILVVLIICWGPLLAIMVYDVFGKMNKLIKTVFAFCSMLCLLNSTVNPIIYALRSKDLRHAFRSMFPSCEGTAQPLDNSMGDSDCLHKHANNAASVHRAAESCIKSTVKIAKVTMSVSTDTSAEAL

**Q.** For Oc1cc(O)cc(Oc2c(O)cc(O)c3c2Oc2c(O)cc(Oc4c(O)cc(Oc5c(O)cc(O)c6c5Oc5c(O)cc(O)cc5O6)cc4O)cc2O3)c1 [Dieckol, dieckol], which “Agonist Effect” value [1] is on record?
**A.** 13.4 ± 19.87%

**Q.** And the inhibition at 100 µM [2]?
**A.** -1.2 ± 6.08%

**Q.** And the inhibition at 100 µM [3]?
**A.** 159 ± 17.8%

**Q.** And the “Antagonist Effect” value (h5-HT1AR)?
**A.** 54.7 ± 1.7%

**Q.** What about the inhibition at 100 µM (h5-HT1AR; [4]) of the same compound?
**A.** 91 ± 3.11%

**Q.** And the inhibition at 200 µM (h5-HT1AR; [4])?
**A.** 100.9 ± 0.57%

**Q.** And the IC50 (h5-HT1AR)?
**A.** 43.3 ± 3.22 µM

**Q.** And the inhibition at 100 µM (h5-HT1BR)?
**A.** -7.3 ± 3.96%

**Q.** And the inhibition at 200 µM (h5-HT1BR)?
**A.** -8.1 ± 0.85%

**Q.** Oc1cc(O)cc(Oc2c(O)cc(O)c3c2Oc2c(O)cc4oc5c(Oc6cc(O)cc(O)c6)c(O)cc(O)c5c4c2O3)c1 [PFF-A, phlorofucofuroeckol-A] was tested. Which “Agonist Effect” value [1] did it give?
**A.** −0.5 ± 0.85%

**Q.** What about the inhibition at 100 µM [2] of the same compound?
**A.** 19.2 ± 9.76%

**Q.** What about the inhibition at 100 µM [3] of the same compound?
**A.** 21.4 ± 0.49%

**Q.** And the “Antagonist Effect” value (h5-HT1AR)?
**A.** 85.55 ± 8.41%

**Q.** And the inhibition at 12.5 µM (h5-HT1AR; [4])?
**A.** 37.4 ± 2.19%

**Q.** What about the inhibition at 25 µM (h5-HT1AR; [4]) of the same compound?
**A.** 68.2 ± 9.89%

**Q.** What about the inhibition at 100 µM (h5-HT1AR; [4]) of the same compound?
**A.** 77 ± 11%

**Q.** What about the IC50 (h5-HT1AR) of the same compound?
**A.** 17.8 ± 3.42 µM

**Q.** What about the inhibition at 100 µM (h5-HT1BR) of the same compound?
**A.** -18.5 ± 2.69%

**Q.** What about the inhibition at 200 µM (h5-HT1BR) of the same compound?
**A.** -35.5 ± 4.38%
